Read-outs that look alike come from different tables or passages of the source.
Legend:
[1] = Measurement method 2: sebum transferability through keratinized silicone film into artificial sebum (Franz cell kit); assay type: in vitro ADME; settings: 5% isostearyl alcohol, 2% minoxidil composition, 20 μl, 37° C., 24 hours, FIG. 12
Source text: The present invention also provides a method for the measurement of skin absorbability of a substance (hereinafter the method will be referred to as “measurement method 2”), which comprises bringing a substance into contact with a first surface of a film that mimics the skin surface layer, a second surface of the film being brought into contact with artificial sebum; and using the degree of transfer of the substance to the artificial sebum as an index, to thereby evaluate the sebum transferability of the substance.
The sebum transferability of a substance may be evaluated through the following procedure: the substance is applied to the stratum corneum side of the thin film, the opposite side of the stratum corneum side being brought into contact with the artificial sebum; the degree of transfer of the substance to the artificial sebum, for example, the amount of the substance transferred to the sebum per unit time, i.e., the amount of the substance contained in the sebum is measured; and the amount of the substance in the sebum is employed as an index, to thereby evaluate the sebum transferability of the substance.
1. […]
The test was carried out under the aforementioned conditions. […] The degree of transfer of minoxidil to the artificial sebum was evaluated on the basis of the concentration of minoxidil contained in the sebum after the elapse of a specified time period. […]

[2] = Measurement method 1-2: in vivo skin-pore absorption, human scalp hair follicles; settings: 5% isostearyl alcohol, 1% pantothenyl ethylether, 0.5 ml on scalp, 16 hours, vs control, FIG. 8
Protocol: (§1) (2) an in vivo quantification method (hereinafter referred to as “measurement method 1-2”) in which the amount of a substance (e.g., a drug) which is penetrated into the hair follicle is determined by applying the substance to the human scalp, removing the hair follicle from the scalp, and measuring the concentration of the substance which is delivered to the hair follicle.
(§2) In measurement method 1-2, a method for the application of a substance such as a drug to the human scalp may be arbitrarily determined in accordance with the characteristics or the intended product form of the substance.
(§3) After the substance is applied to a person participating in the test, several hair strands from the person are removed, and the thus-obtained hair follicles may be stored as hair shafts and/or outer root sheaths. The amount of the substance which is delivered to the subcutaneous portion of the hair shaft and/or the outer root sheath is measured, and the thus-obtained delivery amount of the substance may be employed as an index of the skin-pore absorbability of the substance.
(§4) The delivery amount of the substance may be measured in a manner similar to that of measurement method 1-1.
(§5) Thirty male panelists were enrolled in the test. […] Each of the test samples (0.5 ml for each) was applied to the scalp (area: 1 cm^2) of each male panelist, and then the scalp was left for 16 hours. […]

[3] = Measurement method 1-1: in vitro skin-pore absorption into hair follicles and skin tissue; assay type: in vitro ADME, miniature pig
Source text: In measurement method 1-1, the skin of a model animal or the skin reconstructed from skin cells may be employed as a skin model. The model animal from which the skin is taken is not particularly limited, and pig, human, cattle, mouse, or rat are all potential donors. In measurement method 1-1, the skin of a hairy animal is usually employed in order to evaluate the penetrability of a drug through skin pores into hair follicles. Therefore, a mutated hairless animal is usually unsuitable for the model animal. […] Therefore, other than human, pig is preferably employed as a model animal.
The skin is not particularly limited, so long as the skin satisfies the above condition. For example, as described below in the Example, a skin model may be fixed onto a collagen gel.
The conditions for the application of the substance may be arbitrarily determined in accordance with the type of the substance or the object. Usually, the skin to which the substance is applied is incubated at about 37° C. (near the temperature of the human body) over a predetermined time period. The incubation time varies with the intended product form of the substance.
The portion at which the delivery amount of the substance is measured is limited to the region corresponding to the dermis of the skin, since in the region corresponding to the stratum corneum or epidermis of the skin, the hair follicle may be contaminated with epidermal tissue debris or excretions from the sebaceous glands, and thus the exact delivery amount of the substance is difficult to measure.
The method for measuring the delivery amount of the substance is not particularly limited. For example, liquid chromatography (including high-performance liquid chromatography), a fluorescent antibody technique using a fluorescence-labeled antibody, mass spectrometry, or a method using a radioisotope may be employed. Of these, liquid chromatography is preferable, in consideration of convenience.
In the evaluation test, 0.5% pantothenyl ethylether (90% ethanol product) was employed as a substance to be tested, and the skin of a miniature pig (Yucatan Micropig Skin Set: product of Charles River) was employed as a skin model.
The test sample (20 μl) was applied onto the skin sample comprising skin pores 14. The substance was applied onto a region (diameter: 1.5 cm) of the sample; i.e., within an assay ring to which silicon grease was applied. The resultant skin sample 10 was allowed to stand at 37° C. for 16 hours. After having being washed, the sample 10 was separated into the stratum corneum 11, the epidermis 12, and the dermis 13. Subsequently, hair follicles 15 were removed from the dermis 13, and the amount of pantothenyl ethylether contained in the follicles was measured, as a delivery amount per unit weight of the hair follicle, by means of liquid chromatography (NANOSPACE (product of Shiseido Co., Ltd.), eluent: (CH3CN:H2O=3:7), detection wavelength: 210 nm).
The skin sample 10 of the miniature pig was derived from the upper back and lower back (n=3).

[4] = in vivo
Protocol: as §1, §2, §3, §4, §5

Row | Compound | sebum transferability of minoxidil (concentration of minoxidil in the artificial sebum) [1] | concentration of pantothenyl ethylether delivered to the hair follicles (hair shafts and outer root sheaths) [2] | skin-pore absorption of minoxidil (concentration delivered to the hair follicles) ([3]; 5% isostearyl alcohol compared with 5% amine oxide composition, 0.5% minoxidil, FIG. 9B) | skin-pore absorption of β-glycyrrhetinic acid (concentration delivered to the hair follicles) ([3]; 5% isostearyl alcohol compared with 5% amine oxide composition, 0.5% β-glycyrrhetinic acid, FIG. 9A) | concentration of pantothenyl ethylether delivered to hair follicles ([3]; 5% isostearyl alcohol composition vs control, 0.5% pantothenyl ethylether, 20 μl, 37° C., 16 hours, FIG. 4) | concentration of pantothenyl ethylether delivered to the stratum corneum ([3]; 5% isostearyl alcohol composition vs control, FIG. 5A) | concentration of pantothenyl ethylether delivered to the epidermis ([3]; 5% isostearyl alcohol composition vs control, FIG. 5B) | concentration of pantothenyl ethylether delivered to the dermis ([3]; 5% isostearyl alcohol composition vs control, FIG. 5C) | skin-pore absorption of pantothenyl ethylether [4] | skin-pore absorption of pantothenyl ethylether ([3]; 1% terpene refreshing agent, 0.5% pantothenyl ethylether, vs control, FIGS. 11A and 11B)
1 | CC(C)CCCCCCCCCCCCCCCO [isostearyl alcohol] | enhances | increases | accelerates | accelerates | increases significantly | decreased | decreased | slightly increased | – | –
2 | CC12CCC(CC1=O)C2(C)C (stereo not shown) [camphor] | – | – | – | – | – | – | – | – | accelerates | accelerates
